The text below walks through data of a melting point compilation (Tetko et al.; mined from patent text by program, amines drawn as free bases though some values may be those of a salt).

As to `CCCc1c(OCCCOc2ccc3c(c2CCC)OC(CCC(=O)O)(C(=O)O)CC3=O)ccc(C(C)=O)c1O` (stereo not drawn), the melting point is 76 to 79 °C.

On to `CCCCc1ccc(-c2nc3c(s2)C(=O)C(NCCN(C)C)=CC3=O)cc1`, for which the melting point was 126 to 127 °C.

Turning to `Cc1ccc(C2CCN(C[C@H](O)COc3cccc4oc(S(=O)(=O)N(C)C)cc34)CC2)cc1C`, the melting point is 146 to 148 °C.

`CCCCCCCCOC(=O)C(CC(C)C)NC(=O)c1cc([N+](=O)[O-])cc([N+](=O)[O-])c1` (stereo not drawn): the melting point was 71 to 73 °C.

In turn, `CCCCCCCCCCCCCCCCCCCCCCC(COC(C)=O)(COC(C)=O)NC(C)=O` gave a melting point of 94 to 95 °C.

`CCCCc1ccc(-c2ccc(OCC(C)CC)nn2)cc1` (stereo not drawn) registered a melting point of 94 °C.

Consider `CCCc1c(OCCOc2ccc(C(=O)NCCCCc3cccnc3)cc2)ccc(C(C)=O)c1O`, for which the melting point came out at 93 °C.

Compound `COC(=O)c1cccc(-c2nc(-c3ccc(C(F)(F)F)cc3)co2)c1` had a melting point of 151 to 152 °C.

The compound `CC(=O)C1(O)CCC2C3CCC4=CC(=O)CCC4(C)C3C(Cl)CC21C` (stereo not drawn) yielded a melting point of 193 to 196 °C.

`CCCCN(C1CS(=O)(=O)c2cc([N+](=O)[O-])ccc21)S(C)(=O)=O` (stereo not drawn) had a melting point of 52 to 55 °C.

Turning to `C/C(=N\O)c1cccc(NC(=O)NCC(=O)N(CC(=O)N(C)c2ccccc2)c2ccccc2)c1`, the melting point is 170 °C.

The compound `Nc1c(Cl)cc(C(O)CNCCCCCCOCCCc2ccccn2)cc1Cl` (stereo not drawn) yielded a melting point of 38 to 41 °C.

As for `COC(=O)c1cc(=O)c2ccc(S)cc2o1`, the melting point was in the range of 147 to 150 °C.

Compound `COc1cc(C2=NNC(=O)Cc3cc4c(cc32)OCO4)ccc1[N+](=O)[O-]` displayed a melting point of 267 to 269 °C.

The compound `CC(C)(C)c1cc(NC(=O)c2cccc(C#N)c2)cc(C(C)(C)C)c1O` showed a melting point of 219 to 222 °C.

`C#Cc1cccc([C@H]2C[C@H]2NC(=O)Nc2ccc(Cl)cn2)c1` (racemic) came in with a melting point of 148 to 150 °C.

Regarding `COC(=O)Cc1cc(C(C)=O)ccc1OCc1ccccc1`, the melting point is 85 to 87 °C.

With `COc1ccc(S(=O)(=O)Nc2cccnc2Nc2cccc(C)c2)cc1`, the melting point was 147 to 148 °C.

Consider `CCN(CC)C(=O)n1ccc(S(=O)(=O)c2ccccc2OC)n1`, for which the melting point was 67 to 68 °C.

Turning to `Cc1coc2c1C(=O)CC(c1ccccc1)C2` (stereo not drawn), the melting point is 104 to 106 °C.

`Cn1c(C(F)(F)F)cc(=O)n(-c2ccc(Cl)c3nc(N4CCCCC4)sc23)c1=O`: the melting point was 102 to 104 °C.

As for `O=C1c2cc([N+](=O)[O-])ccc2CCn2cccc21`, the melting point was in the range of 190 to 192 °C.

Regarding `CS(=O)(=O)c1ccc(/C(=C2\CCSC2=O)c2ccc(Cl)cc2)cc1`, the melting point is 183 °C.

`CCN(c1ccc(C)c2cc(-c3ncc(CO)s3)[nH]c12)S(=O)(=O)c1cccs1` had a melting point of 166 to 167 °C.

Consider `COc1ccc(C(C)(C)C)cc1C(=O)c1ccc([N+](=O)[O-])cc1Cl`, for which the melting point is 82.5 to 83.5 °C.

`COc1ccc(CCN2CCN(c3cccccc3=O)CC2)cc1OC` had a melting point of 83 to 85 °C.

The compound `O=S(=O)(Nc1cc(I)c(O)c2ccccc12)c1cccs1` returned a melting point of 134 to 136 °C.

Take `Cc1ccc(C(=O)C2=C(N)CCCC2)cc1`: the melting point lay in the range of 130 to 131 °C.

On to `CCN(C(C)=O)c1cccc(-c2ccc3nnc(N)n3n2)c1`, for which the melting point was 192 to 193 °C.

In turn, `CCn1nc(-c2ccc(F)cc2)c(C(C)=O)c(Nc2cccc3cccnc23)c1=O` had a melting point of 154 °C.

Compound `Cc1cn2nc(-c3ccccc3)nc2cc1C(=O)O` displayed a melting point of 228 to 233 °C.

In the case of `Cn1nnc(CN2CCC[C@@H](OCc3cc(C(F)(F)F)cc(C(F)(F)F)c3)[C@H]2c2ccccc2)n1` (relative stereo), the melting point was in the range of 139 to 141 °C.

Take `CNc1nc(C2(S(C)=O)C=CC=C(c3ccccc3)C2)c2cc(OC)c(OC)cc2n1` (stereo not drawn): the melting point lay in the range of 163 to 165 °C.

On to `O=C(N1CC2CC2(c2ccc(Cl)cc2)C1)C12CC3CC(CC(C3)C1)C2` (stereo not drawn), for which the melting point is 72 to 75 °C.

In turn, `O=c1[nH]c2ccc([C@H]3CC[C@H](NCCS(=O)(=O)c4ccccc4)CC3)cc2o1` came in with a melting point of 202 to 208 °C.

Compound `C1=CC(n2nc(-c3cccc4ccccc34)cc2-c2ccccc2)(n2nc(-c3cccc4ccccc34)cc2-c2ccccc2)CC=C1c1ccccc1` had a melting point of 264 °C.

In the case of `O=S1(=O)N=CN(C2CC2)c2cc(Br)c(F)cc21`, the melting point is 218 to 219 °C.

On to `COC(=O)NC(=O)Nc1ccc(OC)c(OC)c1`, for which the melting point is 168 to 170 °C.

Compound `COc1cc(C=O)ccc1OCc1nc(-c2cccc(C#N)c2)oc1C` had a melting point of 166 to 167 °C.

Consider `N#Cc1ccc(N2CCC(CCCO)CC2)c2ccccc12`, for which the melting point lay in the range of 114 to 115 °C.

`COc1ccc(C(=O)c2c(-c3ccccc3)oc3ccc([N+](=O)[O-])cc23)cc1` gave a melting point of 153 °C.

In turn, `CC(C)(C)C(=O)N1C(=O)C(C)(C)NC(C)(C)C1=O` yielded a melting point of 100 to 102 °C.

Compound `Cc1cc(C2=CO[C@@](c3cc(Cl)cc(Cl)c3)(C(F)(F)F)C2)ccc1C(=O)NC1CS(=O)(=O)C1` returned a melting point of 90 to 105 °C.

In the case of `CC(O)CN(CC(C)O)C(=O)c1ccc(C(=O)N2CCN(c3ncccc3NC(C)C)CC2)cc1` (stereo not drawn), the melting point fell in the range of 73 to 75 °C.

`Cc1sc(CCc2ccc(/C=C/CO)cc2)nc1-c1ccccc1` yielded a melting point of 93 to 94 °C.

For the compound `Cc1cccc(-c2nc3ccc(Cl)nn3c2-c2ccnc(N)c2)c1`, the melting point was in the range of 247 to 248 °C.

Consider `CN1CCN(C2(CNC(=O)c3ccc(Cl)c(Cl)c3)CCCCC2)CC1`, for which the melting point lay in the range of 143 to 146 °C.

`CC(C)Oc1ccc(C(=O)NCCN2CCC(Oc3ccc(Cl)c(Cl)c3)CC2)cc1` showed a melting point of 113 to 115 °C.

In turn, `CCC(CC)NC(=O)c1cc(-c2cnc3[nH]cc(C(=O)C4(C)CCCCC4)c3n2)cs1` came in with a melting point of 273 to 275 °C.

Compound `CN1C(C(=O)Nc2cncc(Cl)n2)=C(O)c2ccc3ccccc3c2S1(=O)=O` displayed a melting point of 209 to 210 °C.

In the case of `CC(C)NC(=O)N1CCc2cc(S(=O)(=O)n3cc(-c4ccccc4)[nH]c3=O)ccc21`, the melting point lay within 214 to 216 °C.

In turn, `COC(=O)C(=Cc1ccccc1Cl)c1ccccc1` registered a melting point of 67 to 69 °C.

In turn, `COc1ccc(C(=O)c2cccc([N+](=O)[O-])c2)cc1` gave a melting point of 88 to 89 °C.

Consider `CCCc1nc(S(C)=O)c(C(=O)OCC)n1Cc1cc2c(cc1Cl)OCO2` (stereo not drawn), for which the melting point came out at 187 °C.

In turn, `c1cc(C2NCCc3sccc32)ccn1` (stereo not drawn) showed a melting point of 81.8 to 83.8 °C.

`CCCN(CCC)C(=O)CNc1nc(-c2ccccc2)nc(C)c1CC` had a melting point of 83 to 84 °C.

On to `CCOC(=O)c1cc2c(O)nncc2nc1NC(C)CC` (stereo not drawn), for which the melting point was 184 to 185 °C.

Take `CN(C)C1(c2ccccc2)CCC(O)(c2cc3ccccc3n2S(=O)(=O)c2ccccc2)CC1` (stereo not drawn): the melting point was 173 to 176 °C.

Turning to `Cn1c(=O)c(-c2c(Cl)cccc2Cl)cc2cnc(NCc3ccccc3)nc21`, the melting point fell in the range of 217 to 219 °C.

The compound `O=C(Nc1c(C(O)(C(F)(F)F)C(F)(F)F)ccc2ccccc12)c1cccc(Cl)c1` registered a melting point of 179 to 181 °C.

Turning to `Cc1ccc2nc(-c3ccccc3C#N)ncc2c1`, the melting point lay in the range of 174 to 176 °C.

`O=C(c1c(Cl)cccc1Cl)n1ccnc1-c1ccccc1` registered a melting point of 110 to 114 °C.

On to `Cc1cc(C)c2c(c1O)C(N)C(c1ccccc1)C2` (stereo not drawn), for which the melting point was 135 to 136 °C.

Compound `CCC1=C(O)C(C(C)=O)C(=O)OC1=O` (stereo not drawn) showed a melting point of 212 °C.

Regarding `Cc1ccc(S(=O)(=O)NCc2ccccc2CC(=O)O)cc1`, the melting point lay in the range of 155 to 156 °C.

For `CC(=O)c1cc(Nc2ccn(-c3ccccc3)n2)ccc1O`, the melting point lay within 165 to 167 °C.

The compound `O=C(O)c1ccc2c(c1)S(=O)(=O)c1ccccc1S2=O` (stereo not drawn) yielded a melting point of 340 to 343 °C.

With `CCOC(=O)c1ccc(OCCC2CN(c3nnc(Br)s3)CCO2)cc1` (stereo not drawn), the melting point amounted to 131 °C.

`CCC(O)c1ncn2c1CN(C)C(=O)c1ccccc1-2` (stereo not drawn): the melting point fell in the range of 145 to 147 °C.

`O=Cc1nccc(OCc2ccccc2)c1OCc1ccccc1` displayed a melting point of 103 to 104 °C.

`O=C(O)Cc1c(-c2ccccc2)nn2cccnc12`: the melting point was in the range of 78 to 90 °C.

`NC(=O)c1ccc(-c2ccnc(C(=O)N(O)Cc3ccccc3)c2)cc1` displayed a melting point of 155 to 160 °C.

As for `CCCn1nnn(-c2cc(OC)c(C(F)(F)F)cc2Cl)c1=O`, the melting point lay within 82 to 83 °C.

Regarding `CCOC(=O)c1c(C)nc2c(c1N)c1ccccc1n2Cc1ccc(OC)cc1`, the melting point lay in the range of 138 to 140 °C.

With `CC(=O)C1C=C(Br)C(=O)CO1` (stereo not drawn), the melting point fell in the range of 78 to 80 °C.

Turning to `COC(=O)c1cccc2oc(-c3ccccc3O)nc12`, the melting point fell in the range of 134 to 135 °C.

`CCC(C)S(=O)(=O)NC(=O)Nc1ccc(Cl)cc1` (stereo not drawn) registered a melting point of 172 to 174 °C.

Take `Cc1nc(NC(=O)c2cc(Cl)ccc2F)sc1C(=O)NCc1ccccc1`: the melting point was in the range of 175 to 178 °C.

The compound `COC(=NO)c1cccc2[nH]cc(C=O)c12` displayed a melting point of 178 to 179 °C.

With `CCOC(=O)c1cc(-n2c(=O)cc(C)[nH]c2=O)ccc1Cl`, the melting point was in the range of 220 to 223 °C.

`CC(O)c1nc2c(OCc3ccccc3)cccc2n1C` (stereo not drawn) showed a melting point of 148 to 150 °C.

Take `O=C/C=C/c1cc2ccccc2o1`: the melting point stood at 67 °C.

Turning to `CCOC(=O)C(C#N)=CNc1ccc(-c2ccccc2)cn1`, the melting point was in the range of 119 to 126 °C.

In turn, `CC(=O)N1CCC(Oc2ccccc2N2CCCCC2)CC1` gave a melting point of 69 to 70 °C.

`C=C1N(C)C(=O)OC12CCN(CCCN1c3ccccc3Sc3ccc(C(F)(F)F)cc31)CC2` yielded a melting point of 116 to 118 °C.

With `CCOC(=O)C1=C(C)Nc2nc(N3CCOCC3)nc(N3CCOCC3)c2C1c1ccccc1OC` (stereo not drawn), the melting point turned out to be 188 °C.

For `Fc1cccc(C(c2ccnc3ccccc23)n2ccnc2)c1` (stereo not drawn), the melting point came to 140 °C.

The compound `COC(=O)c1ccc(N2CCC(c3ccc4c(c3)C(C)(C)CCC4(C)C)=N2)cc1` yielded a melting point of 276 to 278 °C.

One may read the melting point as the temperature of the solid-liquid transition.
